Results reported in patent US12263248B2, “Compounds and compositions for intracellular delivery of therapeutic agents” (ModernaTX, Inc., priority 2018, dated 2025).
Marks after values point to notes of the source that are not given here.

How the values were obtained:
[1] = Apparent (surface) pKa of the LNP formulation (TNS assay); format: physicochemical; conditions: for App. pKa: Table 3F
Method in brief: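 Fluorescence of TNS probe added to LNP samples (mRNA 0.04 mg/mL) was read across 21 buffers of pH about 3-12, triplicate per pH. The inflection point of the sigmoidal fluorescence-vs-pH curve, […], gives apparent pKa; method validated in 1× PBS and Tris/sucrose buffer.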

luciferase (Luc) mRNA = assay: Luc expression, whole body bioluminescence after intravenous administration to mice; format: in vivo; conditions: for Total Flux 3 hours / Total Flux 6 hours / Total Flux 24 hours: Luc mRNA; for Novel lipid/MC3 expression ratio, 6 hr. time point, i.v. / Novel lipid/MC3 ratio, 6 hr. timepoint, i.v.: luciferase; for Novel lipid/MC3 expression ratio, 6 hr. time point, i.v.: relative to MC3 formulation; for Fold increase in total body Luc Flux relative to MC3 at 6 h: Table 3A, i.v. administration; for Novel lipid/MC3 ratio, 6 hr. timepoint, i.v.: relative to MC3, Table 3G
Method in brief: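 Bioluminescence, read as region-of-interest total flux at 3, 6 and 24 h, followed a single 0.5 mg/kg intravenous dose of Luc mRNA-loaded nanoparticles in mice (n=6). Luciferin substrate (200 μL, 15 mg/mL in PBS) was injected intraperitoneally into CD-1 mice 15 minutes ahead of each imaging point.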

luciferase mRNA = assay: Luciferase expression after subcutaneous administration to mice; format: in vivo, female CD-1 mice; conditions: for Novel lipid/MC3 expression ratio, 6 hr. time point, s.c. Luc 0.5 mpk / Novel lipid/MC3 expression ratio, s.c. Luc 0.5 mpk (AUC) / Novel lipid/MC3 expression ratio, 6 hr. time point, s.c. Luc 0.05 mpk: relative to MC3; for Novel lipid/MC3 expression ratio, 6 hr. time point, s.c. Luc 0.5 mpk / Novel lipid/MC3 expression ratio, s.c. Luc 0.5 mpk (AUC) / Lipid/MC3 AUC ratio / AUC (luciferase expression): 0.5 mpk; for Lipid/MC3 AUC ratio: luciferase; for AUC (luciferase expression): whole body BLI; for Novel lipid/MC3 ratio, s.c. Luc 6 hr.: relative to MC3, Table 3G
Procedure: The effect of the lipids of the disclosure on protein expression upon subcutaneous administration was studied. Formulations containing lipids of the disclosure and an mRNA expressing luciferase or hEPO were administered subcutaneously to female CD-1 mice at 0.5 mpk. Expression levels were obtained via whole body luminescent imaging (BLI) at 3, 6 and 24 hours after injection and expression levels in liver, spleen and at the injection site were evaluated ex vivo after 24 hours. […] See also Tables 35 and 36, and FIGS. 19 and 27.
Table 35 summarizes the luciferase expression levels using various nanoparticle compositions of the disclosure, and the luciferase expression levels using various nanoparticle compositions of the disclosure as compared to the luciferase expression level using an MC3 formulation after subcutaneous administration, as described above.

[2] = lipid nanoparticle, ±SD within one assay run (Table 37)

Row | Compound | pKa ([1]; Table 1A) | Total Flux 3 hours (luciferase (Luc) mRNA; mice, i.v., 0.5 mg/kg) | Total Flux 6 hours (luciferase (Luc) mRNA; mice, i.v., 0.5 mg/kg) | Total Flux 24 hours (luciferase (Luc) mRNA; mice, i.v., 0.5 mg/kg) | Novel lipid/MC3 expression ratio, 6 hr. time point, s.c. Luc 0.5 mpk (luciferase mRNA) | Fold increase in total body Luc Flux relative to MC3 at 6 h (luciferase (Luc) mRNA) | other results
1 | CCCCCCCCCOC(=O)CCCCCCCN(CCO)CCCCCCCCCC(=O)OC(CCCCCCCC)CCCCCCCC [Compound 23, Heptadecan-9-yl 10-((2-hydroxyethyl)(8-(nonyloxy)-8-oxooctyl)amino) decanoate] | 6.84 | 1.83E+09 | 1.15E+09 | 3.71E+08 | 1.02 |  | App. pKa [1]: 6.88
2 | CCCC/C=C\CCC(CC/C=C\CCCC)OC(=O)CCCCCCCN(CCO)CCCCCC(=O)OCCCCCCCCCCC [Compound 61, (5Z,12Z)-heptadeca-5,12-dien-9-yl 8-((2-hydroxyethyl)(6-oxo-6-(undecyloxy)hexyl)amino)octanoate] | 6.70 | 6.54E+10 | 6.20E+10 | 1.78E+09 | 0.70 |  | Novel lipid/MC3 expression ratio, 6 hr. time point, i.v. (luciferase (Luc) mRNA; intravenous): 2.31
3 | CCCCCCCCCOC(=O)CCCCCCCN(CCCCO)CCCCCCCC(=O)OC(CCCCCCCC)CCCCCCCC [Compound 20, Heptadecan-9-yl 8-((4-hydroxybutyl)(8-(nonyloxy)-8-oxooctyl)amino) octanoate] | 6.87 | 1.71E+10 | 2.48E+10 | 5.40E+08 |  | 0.80 | pKa ([1]; Table 6): 6.87; Fold increase in Luc expression relative to MC3, Intravenous (0.5 mpk dose) (luciferase (Luc) mRNA; intravenous, 0.5 mpk): 0.80; Novel lipid/MC3 expression ratio, s.c. Luc 0.5 mpk (AUC) (luciferase mRNA): (AUC: 4.02); Lipid/MC3 AUC ratio (luciferase mRNA): 4.02; AUC (luciferase expression) (luciferase mRNA): 6.8926E+10 (p/s) * h; Novel lipid/MC3 ratio, s.c. Luc 6 hr. (luciferase mRNA): 4.00
4 | CCCCCCCCCOC(=O)CCCCCCCN(CCO)CCCCCC(=O)OC(CCCCCCCC)CCCCCCCC [Compound 27, Nonyl 8-((6-(heptadecan-9-yloxy)-6-oxohexyl)(2-hydroxyethyl)amino) octanoate] | 6.78 | 1.64E+10 | 1.03E+10 | 1.94E+09 |  | 0.31 | Novel lipid/MC3 expression ratio, 6 hr. time point, s.c. Luc 0.05 mpk (luciferase mRNA): 14.45
5 | CCCCCCCCCN(CCCO)CCCCCCCC(=O)OC(CCCCCCCC)CCCCCCCC [Compound 7, Heptadecan-9-yl 8-((3-hydroxypropyl)(nonyl)amino)octanoate] | 6.75 | 4.13E+10 | 4.03E+10 | 1.68E+09 | 2.29 |  | App. pKa [1]: 6.74; Novel lipid/MC3 expression ratio, 6 hr. time point, s.c. Luc 0.05 mpk (luciferase mRNA): 2.40
6 | CCCCCCCCC(CCCCCCCC)OC(=O)CCCCCCCN(CCO)CCCCCC(=O)OC(CCCCCCCC)C1CC1 (stereo not drawn) [Compound 128, Heptadecan-9-yl 8-((6-((1-cyclopropylnonyl)oxy)-6-oxohexyl)(2-hydroxyethyl)amino)octanoate] | 6.56 | 1.04E+11 | 8.99E+10 | 1.00E+09 | 0.47 | 4.05 | Novel lipid/MC3 expression ratio, 6 hr. time point, i.v. (luciferase (Luc) mRNA; intravenous): 4.05; total flux at 3 hours (luciferase (Luc) mRNA; mice, i.v., 0.5 mg/kg, comparison in words): highest
7 | CCCCCCCCC(CC)OC(=O)CCCCCN(CCO)CCCCCCCC(=O)OC(CCCCCCCC)CCCCCCCC (stereo not drawn) [Compound 75, Heptadecan-9-yl 8-((2-hydroxyethyl)(6-oxo-6-(undecan-3-yloxy)hexyl)amino)octanoate] | 6.67 | 3.51E+10 | 8.80E+10 | 2.13E+09 |  |  | Novel lipid/MC3 ratio, 6 hr. timepoint, i.v. (luciferase (Luc) mRNA; intravenous): 3.29; Novel lipid/MC3 expression ratio, 6 hr. time point, i.v. (luciferase (Luc) mRNA; intravenous): 3.29; Novel lipid/MC3 expression ratio, s.c. Luc 0.5 mpk (AUC) (luciferase mRNA): (AUC: 3.05); Lipid/MC3 AUC ratio (luciferase mRNA): 3.05; AUC (luciferase expression) (luciferase mRNA): 5.2262E+10 (p/s) * h; Novel lipid/MC3 ratio, s.c. Luc 6 hr. (luciferase mRNA): 3.08
8 | CCCCCCCCCOC(=O)CCCCCCCN(CCCCCCCC(=O)OC(CCCCCCCC)CCCCCCCC)CCCNC(=S)NC [Compound 113, Heptadecan-9-yl 8-((3-(3-methylthioureido)propyl)(8-(nonyloxy)-8-oxooctyl)amino)octanoate] | 6.93 | 5.16E+09 | 8.09E+09 | 1.30E+08 |  |  | Novel lipid/MC3 expression ratio, s.c. Luc 0.5 mpk (AUC) (luciferase mRNA): (AUC: 4.30); Lipid/MC3 AUC ratio (luciferase mRNA): 4.30; AUC (luciferase expression) (luciferase mRNA): 7.3721E+10 (p/s) * h; Novel lipid/MC3 ratio, s.c. Luc 6 hr. (luciferase mRNA): 4.53
9 | CCCCCCCC/C=C\COC(=O)CCCCCN(CCO)CCCCCC(=O)OC/C=C\CCCCCCCC [Compound 140, Di((Z)-undec-2-en-1-yl) 6,6′-((2-hydroxyethyl)azanediyl)dihexanoate] | 7.71 | 3.74E+06 | 1.70E+06 | 5.67E+05 |  |  | flux at all timepoints measured (luciferase (Luc) mRNA; mice, i.v., 0.5 mg/kg, 3, 6 and 24 hour, in words): significantly lower flux
10 | CCCCCCCCCCCCCCN(CCO)CCCCCCCC(=O)OC(CCCCCCCC)CCCCCCCC [Compound 2, Heptadecan-9-yl 8-((2-hydroxyethyl)(tetradecyl)amino)octanoate] | 6.73 | 1.93E+10 | 4.31E+10 | 2.43E+09 |  | 1.31 | 
11 | CCCCC/C=C\C/C=C\CCCCCCCCN(CCO)CCCCCCCC(=O)OC(CCCCCCCC)CCCCCCCC [Compound 6, Heptadecan-9-yl 8-((2-hydroxyethyl)((9Z,12Z)-octadeca-9,12-dien-1-yl)amino)octanoate] | 6.32 | 5.38E+09 | 7.60E+09 | 7.69E+08 |  | 1.15 | pKa [1, 2]: 6.32 ± 0.05; luciferase activity relative to MC3 LNP control (luciferase (Luc) mRNA; mice, intravenous, 0.5 mg/kg (mRNA dose)): Equivalent expression to MC3 LNPs; Average total flux (6 h, ffluc) (luciferase (Luc) mRNA; mice, intravenous, 6 h): 7.60 × 10^9; Fold increase in average total flux relative to MC3 (luciferase (Luc) mRNA; mice, intravenous, 6 h): 1.15
12 | CCCCC/C=C\C/C=C\CCCCCCCCN(CCO)CCCCCCCC(=O)OCCCCCCCCC [Compound 136, Nonyl 8-((2-hydroxyethyl)((9Z,12Z)-octadeca-9,12-dien-1-yl)amino)octanoate] | 6.95 | 7.21E+08 | 7.33E+08 | 3.39E+07 |  |  | pKa [1, 2]: 6.95 ± 0.13
13 | CCCCCCCCC(CC)OC(=O)CCCN(CCO)CCCCCCCC(=O)OC(CCCCCCCC)CCCCCCCC (stereo not drawn) [Compound 72, Heptadecan-9-yl 8-((2-hydroxyethyl)(4-oxo-4-(undecan-3-yloxy)butyl)amino)octanoate] | 6.29 | 1.73E+10 | 4.07E+10 | 7.12E+08 |  |  | Novel lipid/MC3 ratio, 6 hr. timepoint, i.v. (luciferase (Luc) mRNA; intravenous): 1.52; Novel lipid/MC3 expression ratio, 6 hr. time point, i.v. (luciferase (Luc) mRNA; intravenous): 1.52; Novel lipid/MC3 expression ratio, s.c. Luc 0.5 mpk (AUC) (luciferase mRNA): (AUC: 2.01); Lipid/MC3 AUC ratio (luciferase mRNA): 2.01; AUC (luciferase expression) (luciferase mRNA): 3.4417E+10 (p/s) * h; Novel lipid/MC3 ratio, s.c. Luc 6 hr. (luciferase mRNA): 2.18
14 | CCCCCCCCCOC(=O)CCCCCCCN(CCO)CCCCCCCC(=O)OCCCCCCCCC [Compound 138, Dinonyl 8,8′-((2-hydroxyethyl)azanediyl)dioctanoate] | 7.39 | 2.97E+07 | 2.30E+07 | 1.63E+06 |  |  | surface pKa ([1]; LNP, Example 26): > 7; pKa [1, 2]: 7.39 ± 0.07
15 | CCCCCCCCCOC(=O)CCCCCCCN(CCCO)CCCCCCCC(=O)OC(CCCCCCCC)CCCCCCCC [Compound 19, Heptadecan-9-yl 8-((3-hydroxypropyl)(8-(nonyloxy)-8-oxooctyl)amino) octanoate] | 6.78 | 3.38E+10 | 3.56E+09 | 4.68E+08 | 2.13 | 0.96 | 
